Measurements taken from patent publication US20250332173A1, “COMPOUNDS AND METHODS FOR MODULATING NUCLEIC ACID SPLICING” (REMIX THERAPEUTICS INC., priority 2021, published 2025).
Where two headings read alike, the source gives them in different places.

Legend:
Target C = assay: HiBiT protein abundance assay, Target C (Promega Nano-Glo HiBiT Lytic Detection System, knock-in K562 cell line); assay type: cell-based, human; conditions: Homo sapiens, K562, 24 h, HiBiT K562 cell line, 24 hours, top dose 10 μM; read-out: Effect on protein abundance, Target C (IC50 category)
In short: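 Knock-in K562 cells carrying HiBiT-tagged Target C, 10,000 per well, treated 24 h at 37 °C with 10-point threefold dilutions (top 10 μM final, ≤0.25% DMSO). Lytic HiBiT luminescence read; response normalised to unmodified K562 and DMSO controls, four-parameter fit interpolated at 50% for IC50.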

MYB mRNA = assay: RT-qPCR splicing assay, MYB canonical junction (CJ) and alternative junction (AJ) mRNA; assay type: cell-based, human; conditions: Homo sapiens; for AC50: increase in MYB alternative junction (AJ) mRNA, read-out: MYB AJ AC50
In short: (§1)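 A673 cells (normalized to PPIA) or K562 cells (normalized to GAPDH or GUSB) were treated 24 h at 37 °C with an 11-point 3-fold dilution series, top 10 uM, DMSO ≤0.25%. Cell lysates went to one-step RT-qPCR measuring canonical- and alternative-junction MYB or HTT transcripts.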

HTT mRNA = assay: RT-qPCR splicing assay, HTT canonical junction (CJ) and alternative junction (AJ) mRNA; assay type: cell-based, human; conditions: Homo sapiens; for AC50: increase in HTT alternative junction (AJ) mRNA, read-out: HTT AJ AC50
In short: as §1

[1] = tested on: K562 (human chronic myelogenous leukemia) cells; assay: Cell Titer Glo 2.0 cell viability assay; assay type: cell-based; conditions: Homo sapiens, K562, 72 h, K562 cells, 72 hours, Cell Titer Glo 2.0; read-out: K562 GI50
[2] = Table 5 panel, canonical junction qPCR, compound concentration having 50% response in CJ decrease, read-out: MYB IC50 (decrease in CJ mRNA levels)
[3] = decrease in MYB canonical junction (CJ) mRNA, RT-qPCR, read-out: MYB CJ IC50
[4] = decrease in HTT canonical junction (CJ) mRNA, RT-qPCR, read-out: HTT CJ IC50
[5] = Table 5 panel, canonical junction qPCR, compound concentration having 50% response in CJ decrease, read-out: HTT IC50 (decrease in CJ mRNA levels)
[6] = canonical junction qPCR panel, Table 5, read-out: MYB (decrease in CJ mRNA levels, IC50)
[7] = canonical junction qPCR panel, Table 5, read-out: HTT (decrease in CJ mRNA levels, IC50)

SMILES	IC50 (Target C)	IC50 (MYB mRNA; [2])	IC50 (MYB mRNA; [3])	AC50 (MYB mRNA; RT-qPCR)	IC50 (HTT mRNA; [4])	AC50 (HTT mRNA; RT-qPCR)	IC50 (HTT mRNA; [5])	GI50 [1]	IC50 (MYB mRNA; [6])	IC50 (HTT mRNA; [7])
CCN1CCC(n2ccc3cc(-c4cc(C)c5nn(C)cc5c4)ncc3c2=O)CC1 [Compound 1207, 6-(2,7-dimethyl-2H-indazol-5-yl)-2-(1-ethylpiperidin-4-yl)-2,7-naphthyridin-1(2H)-one]	1000 to 10000 nM	1000 to 10000 nM	1000 to 10000 nM	1000 to 10000 nM	1000 to 10000 nM	1000 to 10000 nM	1000 to 10000 nM	1000 to 10000 nM		
Cc1cc(-c2cc3ccn(C4CCN(C5CC5)CC4)c(=O)c3cn2)cc2cn(C)nc12 [Compound 1208, 2-(1-cyclopropylpiperidin-4-yl)-6-(2,7-dimethyl-2H-indazol-5-yl)-2,7-naphthyridin-1(2H)-one]	> 10000 nM	1000 to 10000 nM	1000 to 10000 nM	1000 to 10000 nM	> 10000 nM	> 10000 nM	> 10000 nM	> 10000 nM		
Cc1cc(-c2cc3ccn(C4CCN(C5COC5)CC4)c(=O)c3cn2)cc2cn(C)nc12 [Compound 1209, 6-(2,7-dimethyl-2H-indazol-5-yl)-2-(1-(oxetan-3-yl)piperidin-4-yl)-2,7-naphthyridin-1(2H)-one-1]	100 to 1000 nM	100 to 1000 nM	100 to 1000 nM	100 to 1000 nM	100 to 1000 nM	100 to 1000 nM	100 to 1000 nM	100 to 1000 nM		
Cc1cc(-c2cc3ccn(C4CCN(CCO)CC4)c(=O)c3cn2)cc2cn(C)nc12 [Compound 1210, 6-(2.7-dimethyl-2H-indazol-5-yl)-2-(1-(2-hydroxyethyl)piperidin-4-yl)-2,7-naphthyridin-1(2H)-one]	> 10000 nM	1000 to 10000 nM	100 to 1000 nM	1000 to 10000 nM	> 10000 nM	> 10000 nM	> 10000 nM	1000 to 10000 nM		
Cn1cc2cc(-c3ncc4c(=O)n(C5CCNCC5)ccc4n3)c(O)cc2n1 [Compound 1211]	100 to 1000 nM	100 to 1000 nM	< 100 nM	100 to 1000 nM	100 to 1000 nM	100 to 1000 nM	100 to 1000 nM	< 100 nM		
Cn1cc2cc(-c3ncc4c(=O)n(C5CCNCC5)ccc4n3)cc(F)c2n1 [Compound 1212, 2-(7-fluoro-2-methyl-2H-indazol-5-yl)-6-(piperidin-4-yl)pyrido[4,3-d]pyrimidin-5(6H)-one]	100 to 1000 nM	< 100 nM	100 to 1000 nM	< 100 nM	100 to 1000 nM	100 to 1000 nM	100 to 1000 nM	100 to 1000 nM		
Cc1cn2cc(-c3cc4ccn(C5CCNC5)c(=O)c4cn3)cc(C#N)c2n1 (centres unmarked) [Compound 1214]	> 10000 nM	1000 to 10000 nM	1000 to 10000 nM	1000 to 10000 nM	> 10000 nM	> 10000 nM	> 10000 nM	1000 to 10000 nM		
Cc1cn2cc(-c3ncc4c(=O)n(C5CCNC5)ccc4n3)cc(F)c2n1 (centres unmarked) [Compound 1215]	1000 to 10000 nM	100 to 1000 nM	1000 to 10000 nM	100 to 1000 nM	> 10000 nM	> 10000 nM	> 10000 nM	1000 to 10000 nM		
COc1c(-c2cc3ccn(C4CCNCC4)c(=O)c3cn2)cc2cn(C)nc2c1F [Compound 1219]	1000 to 10000 nM	1000 to 10000 nM	1000 to 10000 nM	1000 to 10000 nM	1000 to 10000 nM	1000 to 10000 nM	1000 to 10000 nM	1000 to 10000 nM		
Cc1cn2cc(-c3ncc4c(=O)n(C5CCNC5)ccc4n3)cc(C#N)c2n1 (centres unmarked) [Compound 1221]	100 to 1000 nM	100 to 1000 nM	100 to 1000 nM	100 to 1000 nM	100 to 1000 nM	100 to 1000 nM	100 to 1000 nM	100 to 1000 nM		
Cc1c(O)c(-c2ncc3c(=O)n(C4CCNC4)ccc3n2)cc2cn(C)nc12 (centres unmarked) [Compound 1222]	> 10000 nM	100 to 1000 nM	100 to 1000 nM	100 to 1000 nM	> 10000 nM	1000 to 10000 nM	1000 to 10000 nM	1000 to 10000 nM		
Cn1cc2cc(-c3ncc4c(=O)n(C5CCNC5)ccc4n3)c(O)c(F)c2n1 (centres unmarked) [Compound 1223]	1000 to 10000 nM	100 to 1000 nM	100 to 1000 nM	100 to 1000 nM	1000 to 10000 nM	1000 to 10000 nM	1000 to 10000 nM	1000 to 10000 nM		
Cc1cn2cc(-c3ncc4c(=O)n(C5CCNCC5)ccc4n3)c(O)c(C)c2n1 [Compound 1225]	100 to 1000 nM	100 to 1000 nM	100 to 1000 nM	100 to 1000 nM	100 to 1000 nM	100 to 1000 nM	100 to 1000 nM	100 to 1000 nM		
Cc1cn2cc(-c3ncc4c(=O)n(C5CCNC5)ccc4n3)c(O)c(C)c2n1 (centres unmarked) [Compound 1227]	> 10000 nM	1000 to 10000 nM	1000 to 10000 nM	1000 to 10000 nM	> 10000 nM	> 10000 nM	> 10000 nM	1000 to 10000 nM		
Cc1cn2cc(-c3ncc4c(=O)n([C@@H]5CCNC5)ccc4n3)cc(F)c2n1 [Compound 1228]	1000 to 10000 nM	100 to 1000 nM	1000 to 10000 nM	100 to 1000 nM	> 10000 nM	> 10000 nM	> 10000 nM	1000 to 10000 nM		
Cn1cc2cc(-c3ccc4c(=O)n(C5CCNCC5)ccc4n3)cc(F)c2n1 [Compound 1231]	100 to 1000 nM		100 to 1000 nM	100 to 1000 nM	100 to 1000 nM	100 to 1000 nM		100 to 1000 nM	100 to 1000 nM	100 to 1000 nM
Cc1cn2cc(-c3ccc4c(=O)n(C5CCNCC5)ccc4n3)nc(C)c2n1 [Compound 1238, 2-(2,8-dimethylimidazo[1,2-a]pyrazin-6-yl)-6-(piperidin-4-yl)-1,6-naphthyridin-5(6H)-one]	> 10000 nM		1000 to 10000 nM	> 10000 nM	> 10000 nM	> 10000 nM		> 10000 nM	> 10000 nM	> 10000 nM
Cc1cn2cc(-c3ccc4c(=O)n(C5CCNCC5)ccc4n3)c(O)cc2n1 [Compound 1240]	> 10000 nM		1000 to 10000 nM	1000 to 10000 nM	> 10000 nM	> 10000 nM		1000 to 10000 nM	1000 to 10000 nM	> 10000 nM
Cc1cn2cc(-c3ccc4c(=O)n(C5CCNCC5)ccc4n3)cc(C)c2n1 [Compound 1241, 2-(2,8-dimethylimidazo[1,2-a]pyridin-6-yl)-6-(piperidin-4-yl)-1,6-naphthyridin-5(6H)-one]	< 100 nM		< 100 nM	< 100 nM	100 to 1000 nM	100 to 1000 nM		< 100 nM	< 100 nM	100 to 1000 nM
